# Where two headings read alike, the source gives them in different places. *1 amine or outer side, *2 acyl side, *3 side chain or, on linkers, in order; H or OH if unused. Where a SMILES comes first, the peptide text is derived from it. Bridges are numbered along the chain shown (N, C = ends). Where no end group is shown, it is not given here. Side-chain parts run from the residue outwards. [ ]: non-standard residue; d: D form. The star is where a group is joined. X5 = CCCCCCCCCCCCCCCC(=O)N[C@@H](CCC(=O)NCCCC[C@H](NC(=O)CC[C@H](NC(=O)CCCCCCCCCCCCCCC)C(=O)O)C(=O)*)C(=O)O; Phe(4-NH2) = Nc1ccc(C[C@H](N)C(=O)O)cc1; γGlu = O=C(O)[C@H](CCC(=O)[*:2])N[*:1]; X6 = CCCCCCCCCCCCCCCCC(CC(=O)*)C(=O)O; Palmitoyl = CCCCCCCCCCCCCCCC(=O)*; PEG4 = NCCOCCOCCOCCOCCC(=O)O; Aib = CC(C)(N)C(=O)O
# Tests used:
# Type in all cases: cell-based
# [1] = target: T1, GIP receptor (Homo sapiens, UniProt P48546); assay: cAMP induction, firefly luciferase reporter assay in HEK293 cells co-transfected with GIP receptor; details: for GIPR relative activity: Table 3, relative to the activity of the native hormone
# T1 sequence (P48546 22-466): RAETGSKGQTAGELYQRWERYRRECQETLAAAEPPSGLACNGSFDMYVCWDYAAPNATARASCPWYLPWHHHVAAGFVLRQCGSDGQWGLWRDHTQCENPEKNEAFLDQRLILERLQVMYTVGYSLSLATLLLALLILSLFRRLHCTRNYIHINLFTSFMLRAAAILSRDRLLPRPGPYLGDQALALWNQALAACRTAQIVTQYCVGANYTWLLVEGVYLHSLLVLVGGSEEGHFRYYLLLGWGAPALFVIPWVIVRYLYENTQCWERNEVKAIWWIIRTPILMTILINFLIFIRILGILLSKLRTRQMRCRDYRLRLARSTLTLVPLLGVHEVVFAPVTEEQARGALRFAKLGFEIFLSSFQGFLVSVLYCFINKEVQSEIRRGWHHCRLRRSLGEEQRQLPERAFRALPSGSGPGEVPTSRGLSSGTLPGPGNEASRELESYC
# [2] = target: T2, GLP-1 receptor (Homo sapiens, UniProt P43220); assay: cAMP induction, firefly luciferase reporter assay in HEK293 cells co-transfected with GLP-1 receptor; details: for GLP-1R relative activity: Table 3, relative to the activity of the native hormone
# T2 construct: expressed in transfected cells; host or cells: HEK293
# Text: (§1) This example describes an exemplary method of testing the biological activity of the peptides of the present disclosures, which method involves assaying cAMP synthesis.
# [3] = target: T3, glucagon receptor (Homo sapiens, UniProt P47871); assay: cAMP induction, firefly luciferase reporter assay in HEK293 cells co-transfected with glucagon receptor; details: for GR relative activity: Table 3, relative to the activity of the native hormone
# T3 construct: expressed in transfected cells; host or cells: HEK293
# Text: as §1
# [4] = Table 12, Example 19, read-out: EC50 (cAMP, nmole) GLPR
# [5] = Table 12, Example 19, read-out: EC50 (cAMP, nmole) GCGR
# [6] = EC50 (nM) at GIP Receptor, Table 6, Example 12
# [7] = EC50 (nM) at GLP-1 Receptor, Table 6, Example 12
# [8] = EC50 (nM) at Glucagon Receptor, Table 6, Example 12
# T3 sequence (P47871 26-477): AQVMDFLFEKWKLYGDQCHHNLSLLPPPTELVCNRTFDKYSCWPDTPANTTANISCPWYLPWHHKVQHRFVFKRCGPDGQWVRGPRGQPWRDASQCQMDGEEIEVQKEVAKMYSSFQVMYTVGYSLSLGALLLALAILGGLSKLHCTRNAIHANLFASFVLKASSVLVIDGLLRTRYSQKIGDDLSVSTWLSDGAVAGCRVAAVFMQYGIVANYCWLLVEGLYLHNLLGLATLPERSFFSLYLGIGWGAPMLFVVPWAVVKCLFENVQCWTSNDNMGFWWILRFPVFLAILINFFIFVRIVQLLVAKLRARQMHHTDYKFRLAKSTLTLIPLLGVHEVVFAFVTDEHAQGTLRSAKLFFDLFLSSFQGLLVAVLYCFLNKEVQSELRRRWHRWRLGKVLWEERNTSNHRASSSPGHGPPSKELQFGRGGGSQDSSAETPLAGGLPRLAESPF
# T2 sequence (P43220 24-463): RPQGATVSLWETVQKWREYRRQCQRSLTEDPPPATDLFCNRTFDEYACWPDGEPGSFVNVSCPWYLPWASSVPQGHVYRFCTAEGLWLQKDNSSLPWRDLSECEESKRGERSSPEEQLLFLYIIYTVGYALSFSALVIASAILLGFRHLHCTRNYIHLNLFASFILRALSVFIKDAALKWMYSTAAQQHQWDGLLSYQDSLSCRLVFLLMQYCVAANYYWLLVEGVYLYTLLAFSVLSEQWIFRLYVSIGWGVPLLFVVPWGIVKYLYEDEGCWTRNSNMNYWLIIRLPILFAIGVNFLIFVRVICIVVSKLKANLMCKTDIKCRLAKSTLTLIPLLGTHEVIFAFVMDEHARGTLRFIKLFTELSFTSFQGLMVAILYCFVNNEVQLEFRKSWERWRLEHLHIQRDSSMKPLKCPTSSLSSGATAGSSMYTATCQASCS
compound,measurement,setting,value
CCCCCCCCCCCCCCCC(=O)N[C@@H](CCC(=O)NCCCC[C@H](NC(=O)CC[C@H](NC(=O)CCCCCCCCCCCCCCC)C(=O)O)C(=O)NCCCC[C@H](NC(=O)[C@H](CC(=O)O)NC(=O)[C@H](CO)NC(=O)[C@@H](NC(=O)[C@H](Cc1ccccc1)NC(=O)[C@@H](NC(=O)CNC(=O)[C@H](CCC(N)=O)NC(=O)C(C)(C)NC(=O)[C@@H](N)Cc1c[nH]cn1)[C@@H](C)O)[C@@H](C)O)C(=O)N[C@@H](CO)C(=O)N[C@@H](CCCCN)C(=O)N[C@@H](Cc1ccc(O)cc1)C(=O)N[C@@H](CC(C)C)C(=O)N[C@@H](CC(=O)O)C(=O)N[C@@H](CCC(=O)O)C(=O)N[C@@H](CCCNC(=N)N)C(=O)N[C@@H](C)C(=O)N[C@@H](C)C(=O)N[C@@H](CCC(N)=O)C(=O)N[C@@H](CC(=O)O)C(=O)N[C@@H](Cc1ccccc1)C(=O)N[C@H](C(=O)N[C@@H](CCC(N)=O)C(=O)N[C@@H](Cc1c[nH]c2ccccc12)C(=O)N[C@@H](CC(C)C)C(=O)N[C@@H](CC(C)C)C(=O)N[C@@H](CC(=O)O)C(=O)NCC(=O)NCC(=O)N1CCC[C@H]1C(=O)N[C@@H](CO)C(=O)N[C@@H](CO)C(=O)NCC(=O)N[C@@H](C)C(=O)N1CCC[C@H]1C(=O)N1CCC[C@H]1C(=O)N1CCC[C@H]1C(=O)N[C@@H](CO)C(N)=O)C(C)C)C(=O)O [SEQ ID NO: 160],EC50,"[1]; Table 12, Example 19, read-out: EC50 (cAMP, nmole) GIPR",0.015 nM
same,EC50,[2]; [4],0.007 nM
same,EC50,[3]; [5],0.024 nM
"Example 8 peptide: Tyr1, AIB2, Glu16/Lys20 lactam, Leu-Ala-Gly 27-29, GPSSGAPPPS 30-39, or a peptide lacking a lactam [mt-218]",EC50,"[1]; Table 3, Example 8, read-out: GIPR EC50",14.3 nM
same,GIPR relative activity,[1],0.13%
same,EC50,"[2]; Table 3, Example 8, read-out: GLP-1R EC50",0.338 nM
same,GLP-1R relative activity,[2],7.40%
same,GR relative activity,[3],0.70%
H-H[Aib]QGTFTSDYSKYLDERAAQDFVQWLLDGGPSSGAPPPSK([PEG4-γGlu-Palmitoyl])G-NH2 [SEQ ID NO: 158],EC50,"[1]; GIP Receptor EC50, Table 11, Example 18",0.005 nM
same,EC50,"[2]; GLP-1 Receptor EC50, Table 11, Example 18",0.003 nM
same,EC50,"[3]; Glucagon Receptor EC50, Table 11, Example 18",0.004 nM
CCCCCCCCCCCCCCCC(=O)N[C@@H](CCC(=O)N[C@@H](CCC(=O)NCCCC[C@H](NC(=O)[C@H](CC(=O)O)NC(=O)[C@H](CO)NC(=O)[C@@H](NC(=O)[C@H](Cc1ccccc1)NC(=O)[C@@H](NC(=O)CNC(=O)[C@H](CCC(N)=O)NC(=O)C(C)(C)NC(=O)[C@@H](N)Cc1ccc(O)cc1)[C@@H](C)O)[C@@H](C)O)C(=O)N[C@@H](CO)C(=O)N[C@H](C(=O)N[C@@H](Cc1ccc(O)cc1)C(=O)N[C@@H](CC(C)C)C(=O)N[C@@H](CC(=O)O)C(=O)N[C@@H](CCCCN)C(=O)N[C@@H](CCC(N)=O)C(=O)N[C@@H](C)C(=O)N[C@@H](C)C(=O)NC(C)(C)C(=O)N[C@@H](CCC(=O)O)C(=O)N[C@@H](Cc1ccccc1)C(=O)N[C@H](C(=O)N[C@@H](CC(N)=O)C(=O)N[C@@H](Cc1c[nH]c2ccccc12)C(=O)N[C@@H](CC(C)C)C(=O)N[C@@H](CC(C)C)C(=O)N[C@@H](C)C(=O)NCC(=O)NCC(=O)N1CCC[C@H]1C(=O)N[C@@H](CO)C(=O)N[C@@H](CO)C(=O)NCC(=O)N[C@@H](C)C(=O)N1CCC[C@H]1C(=O)N1CCC[C@H]1C(=O)N1CCC[C@H]1C(=O)N[C@@H](CO)C(N)=O)C(C)C)[C@@H](C)CC)C(=O)O)C(=O)O [compound 81] (H-Y[Aib]QGTFTSDK([γGlu-γGlu-Palmitoyl])SIYLDKQAA[Aib]EFVNWLLAGGPSSGAPPPS-NH2; N-terminus assumed),EC50,[1]; [6],0.005 nM
same,EC50,[2]; [7],0.008 nM
same,EC50,[3]; [8],0.073 nM
CCCCCCCCCCCCCCCC(=O)N[C@@H](CCC(=O)NCCCC[C@H](NC(=O)[C@H](CC(=O)O)NC(=O)[C@H](CO)NC(=O)[C@@H](NC(=O)[C@H](Cc1ccccc1)NC(=O)[C@@H](NC(=O)CNC(=O)[C@H](CCC(N)=O)NC(=O)C(C)(C)NC(=O)[C@@H](N)Cc1c[nH]cn1)[C@@H](C)O)[C@@H](C)O)C(=O)N[C@@H](CO)C(=O)N[C@@H](CCCCN)C(=O)N[C@@H](Cc1ccc(O)cc1)C(=O)N[C@@H](CC(C)C)C(=O)N[C@@H](CC(=O)O)C(=O)N[C@@H](CCC(=O)O)C(=O)N[C@@H](CCCNC(=N)N)C(=O)N[C@@H](CCCNC(=N)N)C(=O)N[C@@H](C)C(=O)NC(C)(C)C(=O)N[C@@H](CCC(=O)O)C(=O)N[C@@H](Cc1ccccc1)C(=O)N[C@H](C(=O)N[C@@H](CCC(N)=O)C(=O)N[C@@H](Cc1c[nH]c2ccccc12)C(=O)N[C@@H](CC(C)C)C(=O)N[C@@H](CC(C)C)C(=O)N[C@@H](CC(=O)O)C(=O)NCC(=O)NCC(=O)N1CCC[C@H]1C(=O)N[C@@H](CO)C(=O)N[C@@H](CO)C(=O)NCC(=O)N[C@@H](C)C(=O)N1CCC[C@H]1C(=O)N1CCC[C@H]1C(=O)N1CCC[C@H]1C(=O)N[C@@H](CO)C(N)=O)C(C)C)C(=O)O [compound 79] (H-H[Aib]QGTFTSDK([γGlu-Palmitoyl])SKYLDERRA[Aib]EFVQWLLDGGPSSGAPPPS-NH2; N-terminus assumed),EC50,[1]; [6],0.003 nM
same,EC50,[2]; [7],0.006 nM
same,EC50,[3]; [8],0.004 nM
CCCCCCCCCCCCCCCCC(CC(=O)Nc1ccc(C[C@H](NC(=O)[C@H](CC(=O)O)NC(=O)[C@H](CO)NC(=O)[C@@H](NC(=O)[C@H](Cc2ccccc2)NC(=O)[C@@H](NC(=O)CNC(=O)[C@H](CCC(=O)O)NC(=O)C(C)(C)NC(=O)[C@@H](N)Cc2ccc(O)cc2)[C@@H](C)O)[C@@H](C)O)C(=O)N[C@@H](CO)C(=O)N[C@H](C(=O)N[C@@H](Cc2ccc(O)cc2)C(=O)N[C@@H](CC(C)C)C(=O)N[C@@H](CC(=O)O)C(=O)N[C@@H](CCCCN)C(=O)N[C@@H](CCC(N)=O)C(=O)N[C@@H](C)C(=O)N[C@@H](C)C(=O)NC(C)(C)C(=O)N[C@@H](CCC(=O)O)C(=O)N[C@@H](Cc2ccccc2)C(=O)N[C@H](C(=O)N[C@@H](CC(N)=O)C(=O)N[C@@H](Cc2c[nH]c3ccccc23)C(=O)N[C@@H](CC(C)C)C(=O)N[C@@H](CC(C)C)C(=O)N[C@@H](C)C(=O)NCC(=O)NCC(=O)N2CCC[C@H]2C(=O)N[C@@H](CO)C(=O)N[C@@H](CO)C(=O)NCC(=O)N[C@@H](C)C(=O)N2CCC[C@H]2C(=O)N2CCC[C@H]2C(=O)N2CCC[C@H]2C(=O)N[C@@H](CO)C(N)=O)C(C)C)[C@@H](C)CC)cc1)C(=O)O (some centres unmarked) [SEQ ID NO: 144] (H-Y[Aib]EGTFTSD[Phe(4-NH2)](X6)SIYLDKQAA[Aib]EFVNWLLAGGPSSGAPPPS-NH2; N-terminus assumed),EC50,[1],0.013 nM
same,EC50,[2],0.004 nM
same,EC50,[3],> 0.5 nM
"Example 8 peptide: Tyr1, AIB2, Glu16/Lys20 lactam, Leu-Ala-Gly 27-29, GPSSGAPPPS 30-39, or a peptide lacking a lactam [mt-227] (Y[Aib]QGTFTSDYSIYLDEQAAKEFVNWLLAGGPSSGAPPPSK([Arg-Cys(PEG 40 kDa)-Ac]); lactam 16-20; not fully specified (C-terminus))",GIPR relative activity,[1],1.29%
same,GLP-1R relative activity,[2],36.25%
same,GR relative activity,[3],1.27%
H[Aib]QGTFTSDYSKYLDERAAQDFVQWLLDGGPSSGAPPPS[Phe(4-NH2)]([γGlu-γGlu-Palmitoyl])G-NH2 [SEQ ID NO: 145],EC50,[1],0.017 nM
same,EC50,[2],0.002 nM
same,EC50,[3],0.002 nM
CCCCCCCCCCCCCCCC(=O)N[C@@H](CCC(=O)NCCCC[C@H](NC(=O)CC[C@H](NC(=O)CCCCCCCCCCCCCCC)C(=O)O)C(=O)NCCCC[C@H](NC(=O)[C@H](CO)NC(=O)[C@@H]1CCCN1C(=O)[C@@H]1CCCN1C(=O)[C@@H]1CCCN1C(=O)[C@H](C)NC(=O)CNC(=O)[C@H](CO)NC(=O)[C@H](CO)NC(=O)[C@@H]1CCCN1C(=O)CNC(=O)CNC(=O)[C@H](CC(=O)O)NC(=O)[C@H](CC(C)C)NC(=O)[C@H](CC(C)C)NC(=O)[C@H](Cc1c[nH]c2ccccc12)NC(=O)[C@H](CCC(N)=O)NC(=O)[C@@H](NC(=O)[C@H](Cc1ccccc1)NC(=O)[C@H](CC(=O)O)NC(=O)[C@H](CCC(N)=O)NC(=O)[C@H](C)NC(=O)[C@H](C)NC(=O)[C@H](CCCNC(=N)N)NC(=O)[C@H](CCC(=O)O)NC(=O)[C@H](CC(=O)O)NC(=O)[C@H](CC(C)C)NC(=O)[C@H](Cc1ccc(O)cc1)NC(=O)[C@H](CCCCN)NC(=O)[C@H](CO)NC(=O)[C@H](Cc1ccc(O)cc1)NC(=O)[C@H](CC(=O)O)NC(=O)[C@H](CO)NC(=O)[C@@H](NC(=O)[C@H](Cc1ccccc1)NC(=O)[C@@H](NC(=O)CNC(=O)[C@H](CCC(N)=O)NC(=O)C(C)(C)NC(=O)[C@@H](N)Cc1c[nH]cn1)[C@@H](C)O)[C@@H](C)O)C(C)C)C(N)=O)C(=O)O [SEQ ID NO: 161] (H-H[Aib]QGTFTSDYSKYLDERAAQDFVQWLLDGGPSSGAPPPSK(X5)-NH2),EC50,"[1]; EC50 (cAMP, nmole) GIPR, Table 12, Example 19",0.01 nM
same,EC50,[2]; [4],0.007 nM
same,EC50,[3]; [5],0.011 nM

# Source: US9587005B2 (priority 2010, dated 2017)
